# What was measured:
# [1] = system: allogeneic heart transplant; assay: Murine allogeneic heart transplant model, graft survival; assay type: in vivo, mice (C57BL/6 donor, Balb/c recipient); details: mouse, in vivo
# Protocol: Polyclonal antibody mATG was administered as an intraperitoneal injection of 5 mg/kg every four weeks or as two 20 mg/kg doses given four days apart when in the transplant setting with the first dose given on the day of transplant (day 0).
# C57BL/6 and BALB/c mice were obtained from Charles River (Kingston, N.Y. or Raleigh, N.C.) and used in these experiments between 8 and 13 weeks of age. The donor allogenic C57BL/6 mice were first anesthetized with an intraperitoneal injection of Ketamine (Fort Dodge Animal Health/Pfizer, Fort Dodge, Iowa) and Xylazine (Lloyd, Shenandoah, Iowa) and a median sternotomy was performed. […] The ascending aorta and pulmonary artery were then transected, the graft removed from the donor and the heart was stored in ice-cold saline until engraftment. A recipient mouse (Balb/c) was similarly anesthetized and prepped as described above for donor mice, except that the abdominal cavity was opened. […] After hemostasis was confirmed, the abdominal muscle was closed with a running 5-O Vicryl suture (Ethicon, Johnson & Johnson, Somerville, N.J.), and the skin closed with running 5-0 Ethilon suture (Ethicon). Standard post-op pain assessment and management was performed. Grafts were assessed by palpation 5-7 times per week for the first 30 day, and then 3-4 times per week until the end of the study.
# anti-alemtuzumab IgG = assay: Anti-alemtuzumab IgG ELISA titers in huCD52 Tg mice
# Text: Alemtuzumab-related studies employed human CD52 (huCD52) transgenic (Tg) mice between 6-12 weeks of age that were obtained from Charles River Laboratories/Genzyme Corp. Mice were housed and maintained in accordance with the Guide for Care and Use of Laboratory Animals and under American Association for Accreditation of Laboratory Animals Care I accreditation and all animal protocols used in these studies were approved by the Institutional Animals Care and Use Committee.
# Monoclonal antibody alemtuzumab was administered intravenously as either a single injection of 0.5 mg/kg or in either a three or five day cycle of 0.5 mg/kg/day.
# Methotrexate (Calbiochem catalog #454125) was administered at 0.5, 1.0, 2.0 or 5 mg/kg by intraperitoneal injection for 1-3 cycles, where each cycle equals either three, six or seven consecutive days of injection depending upon the experiment.
# Mice were bled 4-6 days following alemtuzumab treatment and specific anti-alemtuzumab IgG was measured by ELISA. Briefly, 96-well plates (Corning Inc., Corning, N.Y., USA) were coated overnight with 3 μg/ml of alemtuzumab in PBS (pH 7.2). Following blocking with 0.1% BSA in PBS, serial dilutions of serum were added in duplicate to alemtuzumab-coated plates and incubated at 37° C. for 1 h. The plates were washed, and horseradish peroxidase-conjugated goat anti-mouse IgG secondary antibody (Southern Biotechnology Associates, Birmingham, Ala., USA) was added and allowed to incubate for 1 h at 37° C. Following a final wash, TMB substrate (BioFx, Owings Mills, Md., USA) was added and allowed to develop for 15 min at room temperature. The reaction was stopped by the addition of 1 N HCl and absorbance values were read at 450/650 nm on an ELISA plate reader (Molecular Devices, Sunnyvale, Calif., USA). End-point titers were defined as the antilog of the logarithmically transformed sample dilution interpolated at an absorbance value of 0.2 using Excel software (Microsoft, Redmond, Wash., USA).
# [2] = system: anti-alemtuzumab antibodies; details: rheumatoid arthritis patients, single dose escalation study; cited from earlier work
# [3] = system: circulating and splenic T cells and B cells; assay: Flow cytometry of alemtuzumab-mediated lymphocyte depletion in blood and spleen; assay type: in vivo, huCD52 Tg mice
# Protocol: For splenocyte and lymph node cell preparations single-cell suspensions were generated from harvested mouse spleens or inguinal and mesenteric lymph nodes by homogenization between frosted glass slides into PBS containing 2% FCS. For splenocyte preparations, red blood cells were lysed by 1-2 minute incubation with a red blood cell lysis solution (BD Biosciences, San Diego, Calif.). Blood was isolated by retro-orbital bleeding and cell preparations were performed by lysing red blood cells with red blood cell lysing solution (BD Biosciences) for 20-30 minutes. For all tissue preparations, live cells were enumerated using the ViCell automated counter (Beckman Coulter, Fullerton, Calif.). Following isolation, all cell preparations were washed with PBS/2% FCS prior to use in the assays described below.
# For evaluation of cell populations within different tissues, single cell suspensions of the tissues were incubated with fluorochrome-conjugated antibodies that included anti-mouse CD4, CD8, CD25, CD44, CD62L (all antibodies from BD Biosciences or eBioscience, San Diego, Calif.). Intracellular Foxp3 expression analysis was performed according to the anti-Foxp3 manufacturer's protocol (eBiosciences, San Diego, Calif.). Following incubation with the antibodies, cells were washed and analyzed by flow cytometry (FACSCanto, BD Biosciences and FCS Express software, De Novo Software, Los Angeles, Calif.).
# anti-rhGAA IgG = assay: Anti-rhGAA IgG ELISA titers in mice treated with rhGAA; assay type: in vivo
# Protocol: Recombinant human alglucosidase alfa (rhGAA, marketed by Genzyme Corp. as Myozyme®) was used as a formulated drug product. Mice were treated weekly with 20 mg/kg of rhGAA by bolus tail vein injection unless stated differently. All mice were treated prophylactically with 5 to 30 mg/kg diphenhydramine (Baxter Healthcare Corporation, Deerfield, Ill.) intraperitoneally prior to rhGAA administration. Control animals were treated intravenously with either sterile 0.9% saline or rhGAA-formulation buffer. Methotrexate treatment
# Mice were bled 4-6 days following rhGAA treatment and specific IgG was measured by ELISA. […] Endpoint titers were defined as the reciprocal of the sample dilution resulting in an absorbance value of 0.2 using Softmax software (Molecular Devices, Sunnyvale, Calif.).
# C57Bl/6 mice were treated with one 20 mg/kg intravenous dose of rhGAA (Genzyme Corporation), 3 consecutive intraperitoneal doses of 5 mg/kg methotrexate (APP Pharmaceuticals, LLC), and either 1D11 or 13C4 at 5 mg/kg (Genzyme Corporation) for 3 doses every other day. Methotrexate, 1D11, and 13C4 treatment commenced with rhGAA injections. Spleens were collected 7 days after treatment initiation and were processed as described above for B cells, culture and flow analysis. Additionally, rhGAA titer data was obtained by treating animals as described above, with rhGAA dosed weekly over 12 weeks, methotrexate dosed for either 1 or 3 cycles, and 1D11 or 13C4 dosed 3 times a week every other day for 12 weeks. Serum samples were collected every 2 weeks for ELISA analysis.
# [4] = alemtuzumab 0.5 mg/kg iv five consecutive days
# [5] = peripheral blood, four weeks after five consecutive days of 0.5 mg/kg iv
compound,measurement,setting,value
O=P1(N(CCCl)CCCl)NCCCO1 (stereo not drawn) [cyclophosphamide],graft survival when co-administered with mATG,[1],failed to significantly prolong graft survival
COc1c(C)c2c(c(O)c1C/C=C(\C)CCC(=O)OCCN1CCOCC1)C(=O)OC2 [mycophenolate mofetil],graft survival when co-administered with mATG,[1],failed to significantly prolong graft survival
alemtuzumab: lymphocyte-depleting humanized anti-CD52 monoclonal antibody,ADA responses elicited,anti-alemtuzumab IgG; alemtuzumab 0.5 mg/kg iv,significant ADA responses
same,ADA response following the fifth dose,anti-alemtuzumab IgG; alemtuzumab 0.5 mg/kg monthly,no longer generated anti-alemtuzumab antibodies
same,ADA titers against alemtuzumab,anti-alemtuzumab IgG; huCD52 Tg CD1 mice,"> 100,000"
same,patients in whom anti-alemtuzumab antibodies developed,[2],63%
same,percent depletion of circulating B cells,[3]; 24 hours after a single dose of alemtuzumab,92%
same,"splenic follicular, B1 and regulatory B cells",[3]; [4],depleted at one and/or two weeks
same,"splenic marginal zone, transitional 1 and transitional 2 B cells",[3]; [4],not depleted at any of the time-points
same,splenic transitional 3 B cells,[3]; [4],only depleted after one week of treatment
same,depletion of circulating T cells by fifth monthly dose of alemtuzumab,"[3]; alemtuzumab alone, or with methotrexate 5 mg/kg daily for first three days",no longer deplete T cells
same,recovery of CD19+ B cell numbers,[3]; [5],returned to control levels
same,"recovery of total CD3+ T cells, CD4+ T helper cells and CD8+ T cytotoxic cells",[3]; [5],did not recover to pre-treatment levels
same,"earliest depletion observed in peripheral blood, post-dosing",[3]; single dose of alemtuzumab,three hours
same,percent depletion of circulating B cells,[3]; three days after a single dose of alemtuzumab,36%
same,splenic cell subsets,"[3]; three days after a single dose of alemtuzumab, no methotrexate",significantly depleted
"rhGAA: recombinant human acid alpha-glucosidase, marketed by Genzyme as Myozyme",ADA to rhGAA,anti-rhGAA IgG; T cell deficient Nu/Nu mice,little to no ADA
same,animals exhibiting high anti-rhGAA titers,"anti-rhGAA IgG; week 6, rhGAA alone, rhGAA + methotrexate, or with 5 mg/kg 1D11 or 13C4",two

# — patent US11672802B2, “Induction of immune tolerance by using methotrexate” (Genzyme Corporation, priority 2011, dated 2023)
